Measurements: paper PMC7462607 (eLife, 2020)

System: BRCA1, BRCA2, ATR, ERCC4 mRNA
Assay: RT-qPCR of BRCA1, BRCA2, ATR and ERCC4 mRNAs
Format: cell-based, Homo sapiens
Experimental: Total RNA was extracted from HQ461-treated A549 cells using TRNzol (Tiangen, Beijing, China). Reverse transcription of mRNA into cDNA was performed using the 5X All-In-One RT mastermix kit with AccuRT genomic DNA removal kit (Abm, Richmond, Canada), and qPCR was performed using TB Green Premix Ex Taq (Tli RNaseH Plus) (Takara, Otsu, Japan) with the CFX96 Real-Time PCR Detection System (Bio-Rad, Hercules, USA). GAPDH was used for normalization. Primer sequences are as follows: GAPDH-forward: 5’-[…]-3’; GAPDH-reverse: 5’-[…]-3’; BRCA1-forward: 5’-[…]-3’; BRCA1-reverse: 5’-[…]-3’; BRCA2-forward: 5’-[…]-3’; BRCA2-reverse: 5’-[…]-3’; ATR-forward: 5’-[…]-3’; ATR-reverse: 5’-[…]-3’; ERCC4-forward: 5’-[…]-3’; ERCC4- reverse: 5’-[…]-3’. Each experiment was performed with three technical replicates.

## Cc1cccc(Nc2nc(CC(=O)Nc3ncc(C)s3)cs2)n1 [HQ461, 2-(2-((6-methylpyridin-2-yl)amino)thiazol-4-yl)-N-(5-methylthiazol-2-yl)acetamide]
A549 with CDK12 G731E or G731R mutation
  inhibitory effect on the expression of DDR genes: abolished
Parental A549, 10 µM HQ461 for 16 hr
  mRNA levels of BRCA1, BRCA2, ATR and ERCC4: reductions in the mRNA levels of all four tested DDR genes
